Data from US9326973B2, “Hepatitis C virus inhibitors” (priority 2012, dated 2016).

test system: HCV replicon, genotype-1a variant with glutamine 30 changed to glutamate in the NS5A protein; assay: microbe, parasite or virus in culture; assay type: cell-based, HCV genotype 1a; conditions: HCV replicon genotype 1a Q30E (Q→E) variant; test compound titrated with an NS5A-targeting compound (BMS-790052 fixed at 200 nM); ranking of synergist activity
Summary of the method: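 Synergy was assessed by combining several fixed amounts of an NS5A-targeting compound with a titration of the second compound of interest.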

Structure (SMILES) | Fold-Synergistic 1a (Q30E) [fold]
Cc1nn(-c2ccccc2)nc1C(=O)N1CCC[C@H]1c1ncc(-c2ccc(-c3ccc(-c4cnc([C@@H]5CCCN5C(=O)c5nn(-c6ccccc6)nc5C)[nH]4)cc3)cc2)[nH]1 [Compound S-129] | >100
O=C(c1csc(-c2cccnc2)n1)N1CCC[C@H]1c1ncc(-c2ccc(-c3ccc(-c4cnc([C@@H]5CCCN5C(=O)c5csc(-c6cccnc6)n5)[nH]4)cc3)cc2)[nH]1 [Compound S-130] | >10
Cc1cc(C(=O)N2CCC[C@H]2c2ncc(-c3ccc(-c4ccc(-c5cnc([C@@H]6CCCN6C(=O)c6cc(C)nc(Cl)c6)[nH]5)cc4)cc3)[nH]2)cc(Cl)n1 [Compound S-131] | >10
Cc1nn(C)c2ncc(C(=O)N3CCC[C@H]3c3ncc(-c4ccc(-c5ccc(-c6cnc([C@@H]7CCCN7C(=O)c7cnc8c(c(C)nn8C)c7Cl)[nH]6)cc5)cc4)[nH]3)c(Cl)c12 [Compound S-132] | <10
O=C(c1cnccc1C(F)(F)F)N1CCC[C@H]1c1ncc(-c2ccc(-c3ccc(-c4cnc([C@@H]5CCCN5C(=O)c5cnccc5C(F)(F)F)[nH]4)cc3)cc2)[nH]1 [Compound S-134] | <10
O=C(c1cnc2n(c1=O)CCS2)N1CCC[C@H]1c1ncc(-c2ccc(-c3ccc(-c4cnc([C@@H]5CCCN5C(=O)c5cnc6n(c5=O)CCS6)[nH]4)cc3)cc2)[nH]1 [Compound S-135] | <10
O=C(c1ccc2ncsc2c1)N1CCC[C@H]1c1ncc(-c2ccc(-c3ccc(-c4cnc([C@@H]5CCCN5C(=O)c5ccc6ncsc6c5)[nH]4)cc3)cc2)[nH]1 [Compound S-136] | <10
O=C(c1ccc(-c2ccccc2)o1)N1CCC[C@H]1c1ncc(-c2ccc(-c3ccc(-c4cnc([C@@H]5CCCN5C(=O)c5ccc(-c6ccccc6)o5)[nH]4)cc3)cc2)[nH]1 [Compound S-137] | >10
O=C(c1csc(-c2ccccc2)n1)N1CCC[C@H]1c1ncc(-c2ccc(-c3ccc(-c4cnc([C@@H]5CCCN5C(=O)c5csc(-c6ccccc6)n5)[nH]4)cc3)cc2)[nH]1 [Compound S-138] | >100
O=C(c1cccc2c1OCC2)N1CCC[C@H]1c1ncc(-c2ccc(-c3ccc(-c4cnc([C@@H]5CCCN5C(=O)c5cccc6c5OCC6)[nH]4)cc3)cc2)[nH]1 [Compound S-139] | >10
O=C(c1ccc(C(F)(F)F)nc1)N1CCC[C@H]1c1ncc(-c2ccc(-c3ccc(-c4cnc([C@@H]5CCCN5C(=O)c5ccc(C(F)(F)F)nc5)[nH]4)cc3)cc2)[nH]1 [Compound S-140] | >10
O=C(c1nc2ccccc2s1)N1CCC[C@H]1c1ncc(-c2ccc(-c3ccc(-c4cnc([C@@H]5CCCN5C(=O)c5nc6ccccc6s5)[nH]4)cc3)cc2)[nH]1 [Compound S-141] | >10
Cn1cc(C(=O)N2CCC[C@H]2c2ncc(-c3ccc(-c4ccc(-c5cnc([C@@H]6CCCN6C(=O)c6cn(C)c7ccccc67)[nH]5)cc4)cc3)[nH]2)c2ccccc21 [Compound S-142] | >10
O=C(CC(c1ccccc1)c1ccccc1)N1CCC[C@H]1c1ncc(-c2ccc(-c3ccc(-c4cnc([C@@H]5CCCN5C(=O)CC(c5ccccc5)c5ccccc5)[nH]4)cc3)cc2)[nH]1 [Compound S-143] | >10
O=C(Cc1cccc2ccccc12)N1CCC[C@H]1c1ncc(-c2ccc(-c3ccc(-c4cnc([C@@H]5CCCN5C(=O)Cc5cccc6ccccc56)[nH]4)cc3)cc2)[nH]1 [Compound S-144] | >10
O=C(Cc1ccc2ccccc2c1)N1CCC[C@H]1c1ncc(-c2ccc(-c3ccc(-c4cnc([C@@H]5CCCN5C(=O)Cc5ccc6ccccc6c5)[nH]4)cc3)cc2)[nH]1 [Compound S-145] | >10
O=C(C(c1ccccc1)c1ccccc1)N1CCC[C@H]1c1ncc(-c2ccc(-c3ccc(-c4cnc([C@@H]5CCCN5C(=O)C(c5ccccc5)c5ccccc5)[nH]4)cc3)cc2)[nH]1 [Compound S-146] | <10
O=C(Cc1ccc(-c2ccccc2)cc1)N1CCC[C@H]1c1ncc(-c2ccc(-c3ccc(-c4cnc([C@@H]5CCCN5C(=O)Cc5ccc(-c6ccccc6)cc5)[nH]4)cc3)cc2)[nH]1 [Compound S-147] | <10
O=C(Cc1c[nH]c2ccccc12)N1CCC[C@H]1c1ncc(-c2ccc(-c3ccc(-c4cnc([C@@H]5CCCN5C(=O)Cc5c[nH]c6ccccc56)[nH]4)cc3)cc2)[nH]1 [Compound S-148] | >10
O=C(Cc1ccccn1)N1CCC[C@H]1c1ncc(-c2ccc(-c3ccc(-c4cnc([C@@H]5CCCN5C(=O)Cc5ccccn5)[nH]4)cc3)cc2)[nH]1 [Compound S-149] | <10
O=C(Cc1ccncc1)N1CCC[C@H]1c1ncc(-c2ccc(-c3ccc(-c4cnc([C@@H]5CCCN5C(=O)Cc5ccncc5)[nH]4)cc3)cc2)[nH]1 [Compound S-150] | <10
O=C(CCn1ccc2ccccc21)N1CCC[C@H]1c1ncc(-c2ccc(-c3ccc(-c4cnc([C@@H]5CCCN5C(=O)CCn5ccc6ccccc65)[nH]4)cc3)cc2)[nH]1 [Compound S-151] | >10

Structure (SMILES) | Fold-Synergistic 1a (Q30E) [fold]
Cc1ccc(C2(C(=O)N3CCC[C@H]3c3ncc(-c4ccc(-c5ccc(-c6cnc([C@@H]7CCCN7C(=O)C7(c8ccc(C)cc8)CCCC7)[nH]6)cc5)cc4)[nH]3)CCCC2)cc1 [Compound S-152] | <10
Cc1cn(CCC(=O)N2CCC[C@H]2c2ncc(-c3ccc(-c4ccc(-c5cnc([C@@H]6CCCN6C(=O)CCn6cc(C)c7ccccc76)[nH]5)cc4)cc3)[nH]2)c2ccccc12 [Compound S-153] | >10
O=C(Cc1ccc(Oc2ccccc2)cc1)N1CCC[C@H]1c1ncc(-c2ccc(-c3ccc(-c4cnc([C@@H]5CCCN5C(=O)Cc5ccc(Oc6ccccc6)cc5)[nH]4)cc3)cc2)[nH]1 [Compound S-154] | >10
O=C(N1CCC[C@H]1c1ncc(-c2ccc(-c3ccc(-c4cnc([C@@H]5CCCN5C(=O)C5(c6ccccc6F)CCCC5)[nH]4)cc3)cc2)[nH]1)C1(c2ccccc2F)CCCC1 [Compound S-155] | <10
O=C(N1CCC[C@H]1c1ncc(-c2ccc(-c3ccc(-c4cnc([C@@H]5CCCN5C(=O)C5(c6ccc(F)cc6Cl)CCCC5)[nH]4)cc3)cc2)[nH]1)C1(c2ccc(F)cc2Cl)CCCC1 [Compound S-156] | <10
O=C(C1Cc2ccccc2O1)N1CCC[C@H]1c1ncc(-c2ccc(-c3ccc(-c4cnc([C@@H]5CCCN5C(=O)C5Cc6ccccc6O5)[nH]4)cc3)cc2)[nH]1 (some centres unmarked) [Compound S-157] | >10
COc1ccc(C2(C(=O)N3CCC[C@H]3c3ncc(-c4ccc(-c5ccc(-c6cnc([C@@H]7CCCN7C(=O)C7(c8ccc(OC)cc8)CCCC7)[nH]6)cc5)cc4)[nH]3)CCCC2)cc1 [Compound S-158] | <10
O=C(N1CCC[C@H]1c1ncc(-c2ccc(-c3ccc(-c4cnc([C@@H]5CCCN5C(=O)C5(c6ccccc6)CC5)[nH]4)cc3)cc2)[nH]1)C1(c2ccccc2)CC1 [Compound S-159] | <10
CC1(C(=O)N2CCC[C@H]2c2ncc(-c3ccc(-c4ccc(-c5cnc([C@@H]6CCCN6C(=O)C6(C)CC6)[nH]5)cc4)cc3)[nH]2)CC1 [Compound S-160] | <10
O=C(C1CCC1)N1CCC[C@H]1c1ncc(-c2ccc(-c3ccc(-c4cnc([C@@H]5CCCN5C(=O)C5CCC5)[nH]4)cc3)cc2)[nH]1 [Compound S-162] | <10
O=C(C1Cc2ccccc21)N1CCC[C@H]1c1ncc(-c2ccc(-c3ccc(-c4cnc([C@@H]5CCCN5C(=O)C5Cc6ccccc65)[nH]4)cc3)cc2)[nH]1 (some centres unmarked) [Compound S-163] | <10
O=C(C1CCCC1)N1CCC[C@H]1c1ncc(-c2ccc(-c3ccc(-c4cnc([C@@H]5CCCN5C(=O)C5CCCC5)[nH]4)cc3)cc2)[nH]1 [Compound S-164] | <10
O=C(CC1CCCC1)N1CCC[C@H]1c1ncc(-c2ccc(-c3ccc(-c4cnc([C@@H]5CCCN5C(=O)CC5CCCC5)[nH]4)cc3)cc2)[nH]1 [Compound S-165] | >10
O=C(CCC1CCCC1)N1CCC[C@H]1c1ncc(-c2ccc(-c3ccc(-c4cnc([C@@H]5CCCN5C(=O)CCC5CCCC5)[nH]4)cc3)cc2)[nH]1 [Compound S-166] | >10
O=C(C1CCCCC1)N1CCC[C@H]1c1ncc(-c2ccc(-c3ccc(-c4cnc([C@@H]5CCCN5C(=O)C5CCCCC5)[nH]4)cc3)cc2)[nH]1 [Compound S-167] | <10
O=C(CC1CCCCC1)N1CCC[C@H]1c1ncc(-c2ccc(-c3ccc(-c4cnc([C@@H]5CCCN5C(=O)CC5CCCCC5)[nH]4)cc3)cc2)[nH]1 [Compound S-168] | >10
CCC(C)C(=O)N1CCC[C@H]1c1ncc(-c2ccc(-c3ccc(-c4cnc([C@@H]5CCCN5C(=O)C(C)CC)[nH]4)cc3)cc2)[nH]1 (some centres unmarked) [Compound S-169] | <10
CCCC(C)C(=O)N1CCC[C@H]1c1ncc(-c2ccc(-c3ccc(-c4cnc([C@@H]5CCCN5C(=O)C(C)CCC)[nH]4)cc3)cc2)[nH]1 (some centres unmarked) [Compound S-170] | <10
N#CCC(=O)N1CCC[C@H]1c1ncc(-c2ccc(-c3ccc(-c4cnc([C@@H]5CCCN5C(=O)CC#N)[nH]4)cc3)cc2)[nH]1 [Compound S-171] | <10
CCC(C)CC(=O)N1CCC[C@H]1c1ncc(-c2ccc(-c3ccc(-c4cnc([C@@H]5CCCN5C(=O)CC(C)CC)[nH]4)cc3)cc2)[nH]1 (some centres unmarked) [Compound S-172] | >10
COC(=O)CCC(=O)N1CCC[C@H]1c1ncc(-c2ccc(-c3ccc(-c4cnc([C@@H]5CCCN5C(=O)CCC(=O)OC)[nH]4)cc3)cc2)[nH]1 [Compound S-173] | <10
CC(C)CCC(=O)N1CCC[C@H]1c1ncc(-c2ccc(-c3ccc(-c4cnc([C@@H]5CCCN5C(=O)CCC(C)C)[nH]4)cc3)cc2)[nH]1 [Compound S-174] | <10
